Laboratory results reported in ChEMBL document CHEMBL1136173, “Synthesis and nicotinic binding of novel phenyl derivatives of UB-165. Identifying factors associated with alpha7 selectivity” (Bioorg Med Chem Lett, 2003).

Columns and labels:
[1] = target: Neuronal acetylcholine receptor subunit alpha-7 (Rattus norvegicus, UniProt Q05941); test: Binding affinity towards Nicotinic acetylcholine receptor alpha-7 using [3H]-MLA as radioligand
[2] = target: Neuronal acetylcholine receptor; alpha4/beta2 (Rattus norvegicus, UniProt P09483+P12390); test: Binding affinity towards Nicotinic acetylcholine receptor alpha4-beta2 using [3H]nicotine as radioligand; type: protein-complex assay
[3] = target: Neuronal acetylcholine receptor alpha3/beta4 (Homo sapiens); test: Binding affinity towards alpha3-beta4 subtype of neuronal nicotinic acetylcholine receptor (nAChR) using [3H]epibatidine as radioligand

Neuronal acetylcholine receptor subunit alpha-7, sequence (Q05941 whole entry): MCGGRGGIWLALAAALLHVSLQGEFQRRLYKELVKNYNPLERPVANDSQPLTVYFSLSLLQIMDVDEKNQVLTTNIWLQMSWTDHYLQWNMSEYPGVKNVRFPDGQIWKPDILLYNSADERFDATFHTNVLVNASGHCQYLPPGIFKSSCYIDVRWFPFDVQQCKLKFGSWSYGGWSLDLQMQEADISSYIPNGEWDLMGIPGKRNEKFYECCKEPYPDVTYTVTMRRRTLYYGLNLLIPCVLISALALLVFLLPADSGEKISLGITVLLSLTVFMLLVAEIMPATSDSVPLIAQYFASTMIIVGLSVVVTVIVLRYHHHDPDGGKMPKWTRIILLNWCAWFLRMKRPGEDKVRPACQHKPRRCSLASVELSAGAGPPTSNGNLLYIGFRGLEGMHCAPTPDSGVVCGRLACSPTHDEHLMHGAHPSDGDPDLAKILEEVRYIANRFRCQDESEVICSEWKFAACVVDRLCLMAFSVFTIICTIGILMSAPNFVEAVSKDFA
Neuronal acetylcholine receptor; alpha4/beta2, sequence (P09483 whole entry): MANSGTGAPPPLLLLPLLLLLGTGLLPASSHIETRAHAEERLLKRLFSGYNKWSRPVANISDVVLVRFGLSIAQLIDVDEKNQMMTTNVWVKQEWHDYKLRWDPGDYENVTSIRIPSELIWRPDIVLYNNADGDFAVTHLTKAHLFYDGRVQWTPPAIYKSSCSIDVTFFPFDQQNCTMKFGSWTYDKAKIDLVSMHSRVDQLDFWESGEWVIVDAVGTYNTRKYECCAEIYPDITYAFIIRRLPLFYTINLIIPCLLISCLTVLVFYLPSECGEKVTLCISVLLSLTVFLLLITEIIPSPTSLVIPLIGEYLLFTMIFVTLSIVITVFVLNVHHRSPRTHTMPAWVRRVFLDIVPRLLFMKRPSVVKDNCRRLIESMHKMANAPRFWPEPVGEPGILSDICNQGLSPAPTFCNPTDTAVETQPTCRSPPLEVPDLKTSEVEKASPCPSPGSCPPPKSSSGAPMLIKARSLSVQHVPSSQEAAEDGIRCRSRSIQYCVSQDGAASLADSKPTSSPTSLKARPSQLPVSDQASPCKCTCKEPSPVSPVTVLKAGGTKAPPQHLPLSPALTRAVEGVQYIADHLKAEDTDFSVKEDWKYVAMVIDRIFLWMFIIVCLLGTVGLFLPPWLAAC
Neuronal acetylcholine receptor; alpha4/beta2, sequence (P12390 whole entry): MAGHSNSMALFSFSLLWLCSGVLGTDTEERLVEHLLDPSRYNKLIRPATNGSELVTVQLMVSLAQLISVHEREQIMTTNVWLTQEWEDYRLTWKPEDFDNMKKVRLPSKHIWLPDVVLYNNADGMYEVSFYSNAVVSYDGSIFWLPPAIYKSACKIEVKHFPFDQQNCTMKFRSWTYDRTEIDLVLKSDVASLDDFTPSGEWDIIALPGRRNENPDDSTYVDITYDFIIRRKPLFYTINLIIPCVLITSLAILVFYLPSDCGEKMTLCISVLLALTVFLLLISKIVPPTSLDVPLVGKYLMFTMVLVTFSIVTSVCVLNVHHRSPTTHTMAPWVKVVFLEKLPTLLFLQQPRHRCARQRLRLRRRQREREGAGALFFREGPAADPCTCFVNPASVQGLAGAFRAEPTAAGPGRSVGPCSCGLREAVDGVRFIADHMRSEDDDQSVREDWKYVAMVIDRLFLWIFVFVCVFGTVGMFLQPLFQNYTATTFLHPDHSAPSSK

| SMILES | Ki [1] | Ki [2] | Ki [3] |
| --- | --- | --- | --- |
| C1=C(c2cccnc2)C2CCC(CC1)N2 (centres undefined) | 89 nM | 0.43 nM | – |
| C1=C(c2cnccc2-c2ccccc2)C2CCC(CC1)N2 (centres undefined) | 927 nM | 234 nM | 1990 nM |
| Clc1ccc(C2=CCC[C@@H]3CC[C@H]2N3)cn1 | 2760 nM | – | – |
| C1=C(c2ccc(-c3ccccc3)nc2)C2CCC(CC1)N2 (centres undefined) | 1310 nM | 21.4 nM | – |
| C1=C(c2cncc(-c3ccccc3)c2)C2CCC(CC1)N2 (centres undefined) | 16000 nM | 4.8 nM | 468 nM |
| C1=C(c2cccnc2-c2ccccc2)C2CCC(CC1)N2 (centres undefined) | > 50000 nM | > 50000 nM | > 50000 nM |
